molecular target: T1, chimeric human H3 receptor (Homo sapiens, UniProt Q9Y5N1); test: Chimeric human H3 receptor screening GTP binding assay at 4 μM (Example 8); format: biochemical; conditions: test compound 4 μM, 1 μM histamine, P2 membranes of Sf9 cells; read-out: % (percent inhibition of agonist-induced GTP-gammaS binding to H3)
T1 construct: made in house; host or cells: Sf9 insect cells (baculovirus); P2 membrane preparation
Protocol: This Example illustrates a representative screening assay for evaluating inhibition of histamine-stimulated GTP-gamma^35S binding. Such GTP binding activity can be used to identify H3 antagonists and inverse agonists. A compound analyzed in this assay is referred to herein as a “test compound,” and the initial identification of antagonists and inverse agonists is performed using a test compound concentration of 4 μM.
Four independent baculoviral stocks (one directing the expression of the chimeric human H3 receptor and three directing the expression of each of the three subunits of a heterotrimeric G-protein) are used to infect a culture of Sf9 cells as described above. P2 membranes are prepared as described above, and are resuspended by Dounce homogenization (tight pestle) in GTP binding assay buffer (50 mM Tris pH 7.4, 120 mM NaCl, 5 mM MgCl2, 2 mM EGTA, 1 mg/ml BSA, 0.2 mg/ml bacitracin, 0.02 mg/ml aprotinin, 0.01 mg/ml saponin, 10 μM GDP) and added to assay tubes at a concentration of 35 μg protein/reaction tube. Non-radiolabeled test compounds are added to separate reactions at a concentration of 4 μM along with 1 μM histamine (agonist). Reactions are initiated by the addition of 125 pM GTP-gamma^35S with a final assay volume of 0.20 ml.
After a 60-min incubation at room temperature, reactions are terminated by vacuum filtration over GF/C filters (pre-soaked in 50 mM Tris pH 7.4, 120 mM NaCl plus 0.1% BSA) followed by washing with ice-cold buffer (50 mM Tris pH 7.4, 120 mM NaCl). The amount of receptor-bound (and thereby membrane-bound) GTP-gamma^35S is determined by measuring the bound radioactivity, preferably by liquid scintillation spectrometry of the washed filters. Non-specific binding is determined using 10 uM GTP-gammaS and typically represents less than 5 percent of total binding. After subtraction of non-specific binding, data is expressed as percent inhibition of 1 μM histamine signal.
Neutral antagonists are those test compounds that reduce the histamine-stimulated GTP binding activity towards, but not below, baseline levels. In contrast, in the absence of added histamine, inverse agonists reduce the GTP binding activity of the receptor-containing membranes below baseline. Any test compound that elevates GTP binding activity above baseline in the absence of added histamine in this assay is defined as having agonist activity.

T1 sequence (Q9Y5N1 with tags, fused parts or gaps): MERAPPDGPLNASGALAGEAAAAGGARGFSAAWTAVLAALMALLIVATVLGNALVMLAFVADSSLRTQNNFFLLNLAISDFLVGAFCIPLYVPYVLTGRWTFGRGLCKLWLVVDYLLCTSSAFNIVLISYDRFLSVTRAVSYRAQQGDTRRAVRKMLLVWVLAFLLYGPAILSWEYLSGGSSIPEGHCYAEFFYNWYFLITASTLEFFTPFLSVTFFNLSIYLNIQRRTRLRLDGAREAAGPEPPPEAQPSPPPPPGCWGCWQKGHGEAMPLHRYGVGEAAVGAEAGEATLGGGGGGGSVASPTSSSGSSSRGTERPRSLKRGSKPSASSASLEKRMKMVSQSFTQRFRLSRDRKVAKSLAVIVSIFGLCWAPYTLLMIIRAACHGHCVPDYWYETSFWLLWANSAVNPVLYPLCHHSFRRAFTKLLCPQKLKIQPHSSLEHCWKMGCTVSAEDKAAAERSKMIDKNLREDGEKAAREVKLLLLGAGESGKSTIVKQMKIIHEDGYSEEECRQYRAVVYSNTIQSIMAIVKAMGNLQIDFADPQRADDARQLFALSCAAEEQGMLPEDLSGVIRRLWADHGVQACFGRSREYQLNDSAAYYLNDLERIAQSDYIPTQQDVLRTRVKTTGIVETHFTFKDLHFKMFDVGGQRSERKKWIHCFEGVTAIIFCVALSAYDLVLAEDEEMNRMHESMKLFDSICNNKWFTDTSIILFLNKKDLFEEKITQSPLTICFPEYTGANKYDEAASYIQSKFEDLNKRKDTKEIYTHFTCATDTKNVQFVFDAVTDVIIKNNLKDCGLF

Row | Compound | inhibition at 4 µM [%]
1 | CC1CCCCN1C1CCN(C(=O)CN2CCc3c([nH]c4ccccc34)C2)CC1 (stereo not drawn) [Compound 34, 2-[2-(2-Methyl-1,4′-bipiperidin-1′-yl)-2-oxoethyl]-2,3,4,9-tetrahydro-1H-beta-carboline] | ≥ 90
2 | C=CCN1CCN(C(=O)CN2CCc3c([nH]c4ccccc34)C2)CC1 [Compound 35, 2-[2-(4-Allylpiperazin-1-yl)-2-oxoethyl]-2,3,4,9-tetrahydro-1H-beta-carboline] | ≥ 90
3 | CC(C)N1CCCN(C(=O)CN2CCc3c([nH]c4ccccc34)C2)CC1 [Compound 36, 2-[2-(4-Isopropyl-1,4-diazepan-1-yl)-2-oxoethyl]-2,3,4,9-tetrahydro-1H-beta-carboline] | ≥ 90
4 | O=C(CN1CCc2c([nH]c3ccccc23)C1)N1CCCN(C2CCC2)CC1 [Compound 37, 2-[2-(4-Cyclobutyl-1,4-diazepan-1-yl)-2-oxoethyl]-2,3,4,9-tetrahydro-1H-beta-carboline] | ≥ 90
5 | CC1CCCC1N1CCN(C(=O)CN2CCc3c([nH]c4ccccc34)C2)CC1 (stereo not drawn) [Compound 38, 2-{2-[4-(2-Methylcyclopentyl)piperazin-l-yl]-2-oxoethyl}-2,3,4,9-tetrahydro-1H-beta-carboline] | ≥ 90
6 | O=C(CN1CCc2c([nH]c3ccccc23)C1)N1CCC(N2CCCC2)C1 (stereo not drawn) [Compound 39, 2-[2-(1,3′-Bipyrrolidin-1′-yl)-2-oxoethyl]-2,3,4,9-tetrahydro-1H-beta-carboline] | ≥ 90
7 | O=C(CN1CCc2c([nH]c3ccccc23)C1)N1CCN(C2CCOCC2)CC1 [Compound 40, 2-{2-Oxo-2-[4-(tetrahydro-2H-pyran-4-yl)piperazin-1-yl]ethyl}-2,3,4,9-tetrahydro-1H-beta-carboline] | ≥ 90
8 | O=C(CN1CCc2c([nH]c3ccccc23)C1)N1CCN(C2CCCCC2)CC1 [Compound 41, 2-[2-(4-Cyclohexylpiperazin-1-yl)-2-oxoethyl]-2,3,4,9-tetrahydro-1H-beta-carboline] | ≥ 90
9 | CCN1CCN(C(=O)CN2CCc3c([nH]c4ccccc34)C2)CC1 [Compound 42, 2-[2-(4-Ethylpiperazin-1-yl)-2-oxoethyl]-2,3,4,9-tetrahydro-1H-beta-carboline] | ≥ 90
10 | CN1CCC(N(C)C(=O)CN2CCc3c([nH]c4ccccc34)C2)CC1 [Compound 43] | ≥ 90
11 | CCCN1CCN(C(=O)CN2CCc3c([nH]c4ccccc34)C2)CC1 [Compound 44, 2-[2-(4-propylpiperazin-1-yl)-2-oxoethyl]-2,3,4,9-tetrahydro-1H-beta-carboline] | ≥ 90
12 | O=C(CN1CCc2c([nH]c3ccccc23)C1)N1CCN(C2CCCC2)CC1 [Compound 45, 2-[2-(4-Cyclopentylpiperazin-1-yl)-2-oxoethyl]-2,3,4,9-tetrahydro-1H-beta-carboline] | ≥ 90
13 | CCN(CC)C1CCN(C(=O)CN2CCc3c([nH]c4ccccc34)C2)CC1 [Compound 46, N,N-Diethyl-1-(1,3,4,9-tetrahydro-2H-beta-carbolin-2-ylacetyl)piperidin-4-amine] | ≥ 90
14 | CCCCN1CCCN(C(=O)CN2CCc3c([nH]c4ccccc34)C2)CC1 [Compound 47, 2-[2-(4-Butyl-1,4-diazepan-1-yl)-2-oxoethyl]-2,3,4,9-tetrahydro-1H-beta-carboline] | ≥ 90
15 | CCCCN1CCN(C(=O)CN2CCc3c([nH]c4ccccc34)C2)CC1 [Compound 48, 2-[2-(4-Butylpiperazin-1-yl)-2-oxoethyl]-2,3,4,9-tetrahydro-1H-beta-carboline] | ≥ 90
16 | CCN(CC)C1CCN(C(=O)CN2CCc3c([nH]c4ccccc34)C2)C1 (stereo not drawn) [Compound 49, N,N-Diethyl-1-(1,3,4,9-tetrahydro-2H-beta-carbolin-2-ylacetyl)pyrrolidin-3-amine] | ≥ 90
17 | CC(C)CN1CCN(C(=O)CN2CCc3c([nH]c4ccccc34)C2)CC1 [Compound 50, 2-[2-(4-Isobutylpiperazin-1-yl)-2-oxoethyl]-2,3,4,9-tetrahydro-1H-beta-carboline] | ≥ 90
18 | CCCN(CC1CC1)C1CCN(C(=O)CN2CCc3c([nH]c4ccccc34)C2)CC1 [Compound 51, N-(Cyclopropylmethyl)-N-propyl-1-(1,3,4,9-tetrahydro-2H-beta-carbolin-2-ylacetyl)piperidin-4-amine] | ≥ 90
19 | O=C(CN1CCc2c([nH]c3ccccc23)C1)N1CCC(N2CCCC2)CC1 [Compound 52, 2-[2-Oxo-2-(4-pyrrolidin-1-ylpiperidin-1-yl)ethyl]-2,3,4,9-tetrahydro-1H-beta-carboline] | ≥ 90
20 | O=C(CN1CCc2c([nH]c3ccccc23)C1)N1CCC(N2CCCCC2)CC1 [Compound 53, 2-[2-(1,4′-Bipiperidin-1′-yl)-2-oxoethyl]-2,3,4,9-tetrahydro-1H-beta-carboline] | ≥ 90
21 | COCCN(C(=O)CN1CCc2c([nH]c3ccccc23)C1)C1CCN(C)CC1 [Compound 54, N-(2-Methoxyethyl)-N-(1-methylpiperidin-4-yl)-2-(1,3,4,9-tetrahydro-2H-beta-carbolin-2-yl)acetamide] | ≥ 90
22 | O=C(CN1CCc2c([nH]c3ccccc23)C1)N1CCN(CCCN2CCCC2)CC1 [Compound 55, 2-{2-Oxo-2-[4-(3-pyrrolidin-1-ylpropyl)piperazin-1-yl]ethyl}-2,3,4,9-tetrahydro-1H-beta-carboline] | ≥ 90
23 | O=C(CN1CCc2c([nH]c3ccccc23)C1)N1CCN(CCN2CCCCC2)CC1 [Compound 56, 2-{2-Oxo-2-[4-(2-piperidin-1-ylethyl)piperazin-1-yl]ethyl}-2,3,4,9-tetrahydro-1H-beta-carboline] | ≥ 90
24 | O=C(CN1CCc2c([nH]c3ccccc23)C1)N1CCN(CCCN2CCCCC2)CC1 [Compound 57, 2-{2-Oxo-2-[4-(3-piperidin-1-ylpropyl)piperazin-1-yl]ethyl}-2,3,4,9-tetrahydro-1H-beta-carboline] | ≥ 90
25 | O=C(CN1CCc2c([nH]c3ccccc23)C1)N1CCN(CCN2CCCC2)CC1 [Compound 58, 2-{2-Oxo-2-[4-(2-pyrrolidin-1-ylethyl)piperazin-1-yl]ethyl}-2,3,4,9-tetrahydro-1H-beta-carboline] | ≥ 90
26 | CC(c1ccccc1)N1CCN(C(=O)CN2CCc3c([nH]c4ccccc34)C2)CC1 (stereo not drawn) [Compound 59, 2-{2-Oxo-2-[4-(1-phenylethyl)piperazin-1-yl]ethyl}-2,3,4,9-tetrahydro-1H-beta-carboline] | ≥ 90
27 | CCCN(C(=O)CN1CCc2c([nH]c3ccccc23)C1)C1CCN(C)CC1 [Compound 60, N-(1-Methylpiperidin-4-yl)-N-propyl-2-(1,3,4,9-tetrahydro-2H-beta-carbolin-2-yl)acetamide] | ≥ 90
28 | CN(C)CCCN(C(=O)CN1CCc2c([nH]c3ccccc23)C1)C1CCN(C)CC1 [Compound 61, N-[3-(Dimethylamino)propyl]-N-(1-methylpiperidin-4-yl)-2-(1,3,4,9-tetrahydro-2H-beta-carbolin-2-yl)acetamide] | ≥ 90
29 | CCN(C(=O)CN1CCc2c([nH]c3ccccc23)C1)C1CCN(C)CC1 [Compound 62, N-(1-Methylpiperidin-4-yl)-N-ethyl-2-(1,3,4,9-tetrahydro-2H-beta-carbolin-2-yl)acetamide] | ≥ 90
30 | CN(CCN1CCCC1)C(=O)CN1CCc2c([nH]c3ccccc23)C1 [Compound 63] | ≥ 90

From patent publication US20110002855A1 (NEUROGEN CORPORATION, priority 2007, published 2011)
